The results in this text go back to ChEMBL document CHEMBL1201862, “PubChem BioAssay data set” (2004).

Calls of active or inactive are those of the source.

One test has as its target Ion channel NompC (Danio rerio, UniProt Q7T1G6). The test is described as follows: Dose response cell-based high-throughput screening assay for agonists of the transient receptor potential channel N1 (TRPN1). [Related pubchem assays (depositor defined):AID1424, AID1448]. It counts as functional.
Another test addresses T1, Mucolipin-3 (Homo sapiens, UniProt Q8TDD5).
T1 sequence (Q8TDD5 whole entry): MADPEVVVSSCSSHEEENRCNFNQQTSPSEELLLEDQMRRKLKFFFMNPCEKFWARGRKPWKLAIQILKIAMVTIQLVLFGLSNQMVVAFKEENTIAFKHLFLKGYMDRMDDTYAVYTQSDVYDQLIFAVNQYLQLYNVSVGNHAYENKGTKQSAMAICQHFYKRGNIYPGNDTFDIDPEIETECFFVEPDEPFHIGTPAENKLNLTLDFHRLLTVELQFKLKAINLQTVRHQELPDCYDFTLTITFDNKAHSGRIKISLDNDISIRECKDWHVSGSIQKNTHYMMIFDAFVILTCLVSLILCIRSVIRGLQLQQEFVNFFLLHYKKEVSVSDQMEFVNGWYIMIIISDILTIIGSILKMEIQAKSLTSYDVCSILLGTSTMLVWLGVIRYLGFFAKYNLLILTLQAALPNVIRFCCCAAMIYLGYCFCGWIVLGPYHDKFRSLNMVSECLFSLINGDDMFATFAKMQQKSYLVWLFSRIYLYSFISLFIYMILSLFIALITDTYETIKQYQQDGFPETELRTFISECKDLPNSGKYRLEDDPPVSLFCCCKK
Nature of the test: Fluorescence counterscreen assay for […] agonists: dose response cell-based high-throughput screening assay to identify agonists of the transient receptor potential channel ML3 (TRPML3). [Related pubchem assays: 1424, 1448 ]. It counts as functional.

Test [1] has as its system BJ. The test is described as follows: BJ-TERT fibroblast viability loss – cell-based, RAS-independent, luminescence, dose response (AID 1933). It counts as functional. As to conditions: Homo sapiens.
Test [2] deals with BJ. Nature of the test: cells. It counts as functional, cell-based. The note with it: Homo sapiens.
For test [3], the system named is BJ. Nature of the test: BJ-TERT-LT-ST fibroblast viability loss – cell-based, RAS-independent, luminescence, dose response (AID 1935).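 Further: BJ fibroblasts immortalized with TERT plus LT and ST oncogenes.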 In kind it is functional. The note with it: Homo sapiens.
Test [4] can be described thus: DRD fibroblast viability loss – cell-based, non-viral oncogenic, luminescence, dose response (AID 1934). As to conditions: Homo sapiens. In kind it is functional.
Test [5] concerns the target T2, CAAX prenyl protease 2 (Saccharomyces cerevisiae S288c, UniProt Q03530).
T2 sequence (Q03530 whole entry): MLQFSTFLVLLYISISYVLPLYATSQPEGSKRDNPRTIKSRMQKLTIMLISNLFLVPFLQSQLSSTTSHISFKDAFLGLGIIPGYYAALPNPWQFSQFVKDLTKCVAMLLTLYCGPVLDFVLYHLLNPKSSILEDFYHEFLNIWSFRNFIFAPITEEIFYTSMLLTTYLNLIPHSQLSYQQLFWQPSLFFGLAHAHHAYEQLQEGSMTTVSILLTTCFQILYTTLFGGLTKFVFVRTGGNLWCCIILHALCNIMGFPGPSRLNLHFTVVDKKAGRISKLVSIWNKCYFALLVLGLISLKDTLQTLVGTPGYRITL
In kind it is biochemical.

Test [6] in a line: toxicity toward cultured mammalian cells – cell-based, plate reader, cherry-pick samples, cytotoxicity control, dose response (AID 504397). It counts as functional.
Test [7] concerns the target CAAX prenyl protease 2 (Homo sapiens, UniProt Q9Y256). The test is described as follows: inhibition of Ras-converting CAAX protease Rce1 – biochemical, yeast membranes, quenched-peptide fluorescence, cherry-pick, dose response (AID 588849).
The target of test [8] is Protein phosphatase methylesterase 1 (Homo sapiens, UniProt Q9Y570). Nature of the test: inhibition of PME-1 probe labeling – gel-based ABPP, IC50, set 1, late-stage follow-up (AID 463130). In kind it is functional.
Chain of Protein phosphatase methylesterase 1 (Q9Y570 whole entry): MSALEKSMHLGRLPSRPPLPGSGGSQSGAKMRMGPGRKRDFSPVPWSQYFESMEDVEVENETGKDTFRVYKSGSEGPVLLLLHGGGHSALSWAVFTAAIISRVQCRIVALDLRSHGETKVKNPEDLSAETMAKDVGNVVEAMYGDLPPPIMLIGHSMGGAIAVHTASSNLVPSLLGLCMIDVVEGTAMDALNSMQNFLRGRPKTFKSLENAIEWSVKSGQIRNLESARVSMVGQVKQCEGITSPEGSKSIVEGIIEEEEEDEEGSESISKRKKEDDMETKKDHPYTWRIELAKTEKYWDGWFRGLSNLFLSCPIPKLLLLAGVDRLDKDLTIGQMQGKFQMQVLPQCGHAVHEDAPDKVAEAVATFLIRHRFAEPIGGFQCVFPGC
Test [9] has as its target DNA damage-inducible transcript 3 protein (Mus musculus, UniProt P35639). In kind it is functional, Cricetulus griseus.
For a further test, the target named is X-box-binding protein 1 (Homo sapiens, UniProt P17861). In kind it is functional, Cricetulus griseus.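 Further: confirmatory dose-response counter-screen serving a CHOP assay.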
Chain of X-box-binding protein 1 (P17861 whole entry): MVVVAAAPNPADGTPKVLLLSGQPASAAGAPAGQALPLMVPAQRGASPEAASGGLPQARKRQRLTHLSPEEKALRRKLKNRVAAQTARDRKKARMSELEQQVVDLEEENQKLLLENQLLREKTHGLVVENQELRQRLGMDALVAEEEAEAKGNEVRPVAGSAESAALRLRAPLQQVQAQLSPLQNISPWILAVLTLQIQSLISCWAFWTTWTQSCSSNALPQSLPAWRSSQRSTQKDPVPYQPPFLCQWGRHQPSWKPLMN

Chain of Ion channel NompC (Q7T1G6 whole entry): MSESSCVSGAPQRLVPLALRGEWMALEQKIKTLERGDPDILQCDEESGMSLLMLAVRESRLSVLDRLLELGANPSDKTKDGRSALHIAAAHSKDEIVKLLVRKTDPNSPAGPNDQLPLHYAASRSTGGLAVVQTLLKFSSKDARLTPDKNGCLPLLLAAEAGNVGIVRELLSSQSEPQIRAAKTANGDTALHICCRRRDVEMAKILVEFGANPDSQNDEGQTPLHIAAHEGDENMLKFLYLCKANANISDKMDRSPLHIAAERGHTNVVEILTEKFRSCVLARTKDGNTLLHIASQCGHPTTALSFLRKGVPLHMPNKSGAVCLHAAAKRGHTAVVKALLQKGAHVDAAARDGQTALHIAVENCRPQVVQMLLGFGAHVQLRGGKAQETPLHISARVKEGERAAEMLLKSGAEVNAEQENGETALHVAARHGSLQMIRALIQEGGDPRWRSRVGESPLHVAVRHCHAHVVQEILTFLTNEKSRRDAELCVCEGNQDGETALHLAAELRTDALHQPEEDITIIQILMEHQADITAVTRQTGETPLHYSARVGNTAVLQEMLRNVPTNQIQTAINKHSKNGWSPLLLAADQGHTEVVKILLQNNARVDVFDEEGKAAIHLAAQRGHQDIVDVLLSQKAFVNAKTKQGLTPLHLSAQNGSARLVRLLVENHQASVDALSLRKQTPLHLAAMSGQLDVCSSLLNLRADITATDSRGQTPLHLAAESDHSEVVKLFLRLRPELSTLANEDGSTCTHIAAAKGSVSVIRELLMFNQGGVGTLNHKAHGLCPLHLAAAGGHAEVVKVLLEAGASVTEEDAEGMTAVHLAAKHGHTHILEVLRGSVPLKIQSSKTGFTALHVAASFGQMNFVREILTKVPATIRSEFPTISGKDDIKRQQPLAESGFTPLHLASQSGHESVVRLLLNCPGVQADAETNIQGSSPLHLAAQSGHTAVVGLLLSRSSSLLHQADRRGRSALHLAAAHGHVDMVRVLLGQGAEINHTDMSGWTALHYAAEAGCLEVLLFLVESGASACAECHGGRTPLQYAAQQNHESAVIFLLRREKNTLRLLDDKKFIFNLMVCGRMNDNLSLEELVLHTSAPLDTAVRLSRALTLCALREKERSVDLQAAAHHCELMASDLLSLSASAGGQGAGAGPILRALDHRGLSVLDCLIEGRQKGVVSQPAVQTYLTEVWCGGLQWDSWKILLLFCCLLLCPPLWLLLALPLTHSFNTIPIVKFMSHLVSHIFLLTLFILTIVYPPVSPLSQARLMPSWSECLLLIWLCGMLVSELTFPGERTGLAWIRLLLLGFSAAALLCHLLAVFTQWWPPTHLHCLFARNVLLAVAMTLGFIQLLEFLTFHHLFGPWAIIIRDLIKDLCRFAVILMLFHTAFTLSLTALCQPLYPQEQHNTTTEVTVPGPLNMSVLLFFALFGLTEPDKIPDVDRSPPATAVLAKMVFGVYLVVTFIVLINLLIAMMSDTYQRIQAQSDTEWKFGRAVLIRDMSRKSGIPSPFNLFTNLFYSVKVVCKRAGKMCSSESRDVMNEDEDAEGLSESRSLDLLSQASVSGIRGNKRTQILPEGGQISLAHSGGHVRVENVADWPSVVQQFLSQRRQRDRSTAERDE
Chain of CAAX prenyl protease 2 (Homo sapiens, UniProt Q9Y256) (Q9Y256 whole entry): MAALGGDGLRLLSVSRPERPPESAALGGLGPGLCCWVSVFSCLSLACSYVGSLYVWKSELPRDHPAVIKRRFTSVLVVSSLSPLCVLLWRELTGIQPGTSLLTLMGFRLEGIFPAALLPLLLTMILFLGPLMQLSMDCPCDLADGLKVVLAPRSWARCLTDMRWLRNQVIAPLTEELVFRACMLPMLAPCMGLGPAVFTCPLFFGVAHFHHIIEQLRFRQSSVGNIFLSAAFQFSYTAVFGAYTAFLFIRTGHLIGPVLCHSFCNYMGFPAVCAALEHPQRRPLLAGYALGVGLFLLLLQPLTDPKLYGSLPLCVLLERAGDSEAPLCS
Chain of DNA damage-inducible transcript 3 protein (P35639 whole entry): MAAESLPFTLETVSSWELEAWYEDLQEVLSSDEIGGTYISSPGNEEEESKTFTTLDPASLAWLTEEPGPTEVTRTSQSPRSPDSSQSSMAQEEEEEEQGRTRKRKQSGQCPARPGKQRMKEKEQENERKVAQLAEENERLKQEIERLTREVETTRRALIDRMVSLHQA

In the case of `O=C(Nc1ccccc1)Nc1ccc2snnc2c1`, the EC50 was > 29.9 µM (inactive) at Ion channel NompC and > 29.9 µM (not active) at Mucolipin-3.

`O=C1C(=O)N(C/C=C/c2ccccc2)c2ccccc21`: the EC50 in the test on BJ [1] was 8.22 µM (inconclusive); in the test with BJ [2], > 150 µM (not active); in the test on BJ [3] it was 14.9 µM (active); in test [4], 39.8 µM (active). Further, the values for the AC50 (at CAAX prenyl protease 2 [5]; in test [6]; on CAAX prenyl protease 2 [7]) were 1.92 µM (active), 64.6 µM (active) and 5.17 µM (active), respectively.

Regarding `COC(=O)N1C(=O)[C@](c2ccsc2)(C(C)C)N1C(=O)OC`, in test [8], the IC50 is 10.7 µM (inactive).

Take `O=C(Nc1ccccc1O)c1c(O)nc2c(c1O)CCCC2`: in [9], the “Absolute IC50 (CHOP)” value was 10 µM. The “Absolute IC50 (XBP1)” value at X-box-binding protein 1 stood at 10 µM.

Broadly, the EC50 is the concentration giving half of the maximal effect. Broadly, the AC50 is the concentration giving half of the maximal activity seen. One may read the IC50 as the concentration that gives 50% inhibition.
